From US20190055231A1, “BACE1 INHIBITORS” (Hoffmann-La Roche Inc., priority 2016, published 2019)
“And” between values parts separate entries of the source, which are not always exact repeats. Identical values can stand only once. Like-named read-outs stand apart in the source and are kept apart here.

Legend:
Rat single dose PK study = assay type: in vivo; settings: 1 mg/kg; for concentration at 4 h: oral
Protocol: (§1) Rat Single Dose PK Study (Inhibition of CSF Aβ40 in Wistar Rats)
(§2) The rat single dose PK study was described in H. Hilpert et al., J. Med. Chem. 2013, 56, 3980-3995 (dx.doi.org/10.1021/jm400225m) with slight modifications.
(§3) Blood is transferred into a labeled EDTA-K2 Eppendorf tube and the sample is mixed by inverting the tubes several times. Blood is stored at −20° C.

Plasma Aβ40 = assay: Cynomolgus monkey plasma Aβ40 determination; assay type: in vivo, Cynomolgus monkey (Macacaca fascicularis)
Source text: Cynomolgus Monkey (Macacaca fascicularis) Single Dose PK Study and Plasma Aβ40 Determination
Blood and plasma collection will always be performed in the treatment cage. The animal care keeper grabs either one arm or one leg through the bars. The hairs are shaved for better visibility of the vein. The blood vessel is squeezed, the vein is punctured by using a butterfly and blood is taken. Once enough blood has been withdrawn a cotton swab is placed over the injection site and the needle is gently removed. Bleeding is stopped by pressing a cotton swab on the wound. Plasma samples were taken between 5 min and 48 h.
as §3
Aβ determination in cynomolgous plasma samples was done after solid phase extraction (Lanz, T. et al., J. of Neuroscience Methods, 2006, 157:71-81). Frozen plasma samples were thawed in a 25° C. waterbath. […] Once samples were dried, they were stored at −80° C. or measured immediately. […]
Aβ concentration was determined following a modified protocol from Perkin-Elmer with a commercially available antibody against the N-terminal part of cynomolgus Aβ (6E10, Signet IG-39340) and an in-house C-terminal specific anti-Aβ40 antibody (BAP-24, Brockhaus M. et al., J. Neuroreport, 1998, 9:1481-1486). […]

hERG channel = hERG channel (Homo sapiens, UniProt Q12809); assay: hERG IC20 assay; assay type: cell-based; settings: human, hERG IC20 assay
Source text: The methods to determine the hERG IC20 values was described in Industrializing electrophysiology: HT automated patch clamp on SyncroPatch® 96 using instant frozen cells. Polonchuk L., Methods Mol Biol. 2014; 1183:81-92. (doi: 10.1007/978-1-4939-1096-0_5.) PMID:25023303
QT prolongation is a cardiovascular risk caused by drug candidates which inhibit the hERG channel (human ether a go-go). A sufficient safety margin between the hERG IC20 value and the free plasma concentration necessary to achieve the envisaged thereapeutic effects is desired (ICH. The nonclinical evaluation of the potential for delayed ventricular repolarization (QT interval prolongation) by human pharmaceuticals (S7B), issued as CPMP/ICH/423/02, adopted by CHMP in May 2005 (http://www.ich.org/cache/compo/276-254-1.html; Redfern W S, Carlsson L, Davis A S, Lynch W G, MacKenzie I, Palethorpe S, Siegl P K, Strang I, Sullivan A T, Wallis R, Camm A J, Hammond T G. Relationships between preclinical cardiac electrophysiology, clinical QT interval prolongation and torsade de pointes for a broad range of drugs: evidence for a provisional safety margin in drug development. Cardiovasc Res. 2003 Apr. 1; 58(1):32-45.)). Reducing the activity against efflux transporters expressed at the blood-brain-barrier such as P-glycoprotein P-gp, might result in reduction of the free plasma concentration by optimizing brain penetration.

CSF Aβ40 = assay: Rat single dose study, inhibition of CSF Aβ40 in Wistar rats; assay type: in vivo; settings: rat CSF Aβ40, 1 mg/kg, 4 h post dose
Protocol: as §1, §2
Aβ 40 concentration was determined without solid phase extraction following a modified protocol from Perkin-Elmer with a commercially available antibody against the N-terminal part of rat Aβ (252Q6, Invitrogen cat. No. AMB0062) and an in-house C-terminal specific anti-Aβ40 antibody (BAP-24, Brockhaus M. et al., J. Neuroreport, 1998, 9:1481-1486) bound to acceptor beads (PerkinElmer, Cat. 6772002). 20 μl analyte per well (reconstituted extracts or standard) were loaded to a White Optiplate-96 (Perkin-Elmer, Cat#6005290). Then, a mixture of biotinylated BAP24 antibody (1:2000 diluted at approximately 1 nM final concentration) and antibody 252Q6 bound to AlphaLISA acceptor beads (Perkin-Elmer cat. No. 6772002 (1:100 diluted, 10 ug/mL final concentration) in 1× AlphaLISA buffer (Perkin-Elmer, AL000F) was added. After 1 hour room temperature incubation in the dark, 20 μL of a streptavidin coated donor beads dilution (40 μg/mL) were added and incubated for 30 minutes in the dark. Light emission at 615 nm was recorded using an EnVision AlphaScreen Reader (Perkin-Elmer). Levels of Aβ 40 were calculated as percentage of the baseline samples from non-treated animals.

Chain of hERG channel (Q12809 whole entry): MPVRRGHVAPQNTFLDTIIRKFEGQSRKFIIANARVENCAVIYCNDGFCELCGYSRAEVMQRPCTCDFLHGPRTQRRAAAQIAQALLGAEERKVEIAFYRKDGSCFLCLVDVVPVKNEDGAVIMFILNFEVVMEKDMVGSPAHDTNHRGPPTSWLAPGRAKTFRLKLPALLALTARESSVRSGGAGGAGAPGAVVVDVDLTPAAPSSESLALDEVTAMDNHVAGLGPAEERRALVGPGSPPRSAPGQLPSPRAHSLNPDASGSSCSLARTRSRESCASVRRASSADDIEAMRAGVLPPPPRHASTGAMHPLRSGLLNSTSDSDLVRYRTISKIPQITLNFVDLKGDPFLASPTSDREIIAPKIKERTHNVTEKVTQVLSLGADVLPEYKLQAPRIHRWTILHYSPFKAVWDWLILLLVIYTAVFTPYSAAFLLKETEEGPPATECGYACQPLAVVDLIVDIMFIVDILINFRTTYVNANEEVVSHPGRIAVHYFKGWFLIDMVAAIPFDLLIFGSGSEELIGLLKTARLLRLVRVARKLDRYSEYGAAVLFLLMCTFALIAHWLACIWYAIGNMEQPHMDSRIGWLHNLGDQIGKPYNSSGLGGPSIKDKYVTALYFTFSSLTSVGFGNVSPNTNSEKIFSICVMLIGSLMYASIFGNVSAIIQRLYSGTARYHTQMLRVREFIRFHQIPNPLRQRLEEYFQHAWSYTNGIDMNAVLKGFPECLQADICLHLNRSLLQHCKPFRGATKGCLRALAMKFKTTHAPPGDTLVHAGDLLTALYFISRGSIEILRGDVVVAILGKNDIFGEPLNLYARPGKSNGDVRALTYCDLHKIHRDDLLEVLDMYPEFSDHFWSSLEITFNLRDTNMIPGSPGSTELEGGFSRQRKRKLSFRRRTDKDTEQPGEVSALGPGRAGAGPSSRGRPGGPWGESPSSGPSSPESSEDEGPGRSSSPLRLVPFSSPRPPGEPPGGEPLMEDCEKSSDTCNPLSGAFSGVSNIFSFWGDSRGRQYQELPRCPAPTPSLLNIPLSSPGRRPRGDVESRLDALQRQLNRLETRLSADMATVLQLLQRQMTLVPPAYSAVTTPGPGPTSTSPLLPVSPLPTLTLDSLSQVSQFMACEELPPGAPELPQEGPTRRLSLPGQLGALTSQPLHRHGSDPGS

Plasma concentration at 4 h, free (Rat single dose PK study; 4 h, free unbound): 12.5 nM
Plasma concentration at 4 h (Rat single dose PK study; 4 h, total): 90.2 nM
concentration at 4 h (Rat single dose PK study; Wistar, plasma, 4 h, free unbound, read-out: Plasma concentration at 4 h, free): 12.5 nM
concentration at 4 h (Rat single dose PK study; Wistar, plasma, 4 h, free, read-out: Plasma concentration at 4 h, free): 41 ng/mL
concentration at 4 h (Rat single dose PK study; Wistar, plasma, 4 h, total, read-out: Plasma concentration at 4 h): 90 nM and 41 ng/mL
bioavailability (Rat single dose PK study; Wistar, plasma, po, read-out: Oral Bioavailability F): 62%
SMILES: Cc1cc(C#N)cnc1C(=O)Nc1ccc(F)c([C@@]2(C)N=C(N)O[C@H](C(F)(F)F)[C@@H]2F)n1 [Example 1, N-(6-((4R,5R,6S)-2-amino-5-fluoro-4-methyl-6-(trifluoromethyl)-5,6-dihydro-4H-1,3-oxazin-4-yl)-5-fluoropyridin-2-yl)-5-cyano-3-methylpicolinamide]
Plasma Aβ-lowering 0.2 mg/kg at 24 h (Plasma Aβ40; 24 h post dose): 57%
Plasma Aβ-lowering 0.2 mg/kg at 48 h (Plasma Aβ40; 48 h post dose): 50%
IC20 (hERG channel; instant frozen cells (hERG channel; cell line not named)): > 1 µM
IC20 (hERG channel): > 1 µM
CSF Aβ-lowering 1 mg/kg at 4 h (CSF Aβ40): 80%
CSF Aβ-lowering 1 mg/kg at 4 h (CSF Aβ40; listed as example 1): 80%
